In publication PMC11305846 (ALTEX, 2024):

What was measured:
[1] = tested on: iPSC-CM; test: Ca2+ flux phenotypic assay; details: for beat frequency from Ca2+ flux traces: 100 μM, 90 minutes after treatment, vehicle ~30 beats per minute
[2] = tested on: iPSC-Hep; test: High-content imaging phenotypic assay in iPSC-derived hepatocytes, 48 h exposure; assay type: cell-based, human; details: 0.1-100 μM, benchmark 1 SD

SMILES | negative chronotropy: effect that reached benchmark response (5% change) ([1]; 0.1-100 μM, 90 min) | beat frequency from Ca2+ flux traces [1] [beats per minute] | QT prolongation: effect that reached benchmark response (5% change) ([1]; 0.1-100 μM, 90 min) | concentration-response phenotypic effect on cell mean area [2]
O=S(=O)(O)CCC(F)(F)C(F)(F)C(F)(F)C(F)(F)C(F)(F)C(F)(F)C(F)(F)C(F)(F)F [8:2 FTS, 8:2 Fluorotelomer sulfonic acid] | decreased peak frequency | – | – | –
N.O=C(O)C(F)(F)C(F)(F)C(F)(F)C(F)(F)C(F)(F)C(F)(F)C(F)(F)F [NH4PFOA, Ammonium perfluorooctanoate] | decreased peak frequency | – | – | –
O=S(=O)(O)C(F)(F)C(F)(F)C(F)(F)C(F)(F)F [PFBS, Perfluorobutanesulfonic acid] | decreased peak frequency | 24 | – | –
O=S(=O)([O-])C(F)(F)C(F)(F)C(F)(F)C(F)(F)C(F)(F)C(F)(F)C(F)(F)C(F)(F)C(F)(F)C(F)(F)F.[Na+] [PFDS-Na, Sodium perfluorodecanesulfonate] | decreased peak frequency | – | QT prolongation | –
O=C(O)C(F)(F)C(F)(F)OC(F)(F)F [PFMPA, Perfluoro-3-methoxypropanoic acid] | decreased peak frequency | – | – | –
O=C(O)C(F)(F)C(F)(F)C(F)(F)C(F)(F)C(F)(F)C(F)(F)C(F)(F)F [PFOA, Perfluorooctanoic acid] | decreased peak frequency | – | – | increased mean cell area
O=C(O)C(F)(F)C(F)(F)C(F)(F)C(F)(F)C(F)(F)C(F)(F)C(F)(F)C(F)(F)C(F)(F)C(F)(F)C(F)(F)C(F)(F)C(F)(F)F [PFTeDA, Perfluorotetradecanoic acid] | decreased peak frequency | – | – | –
O=C(O)C(F)(F)C(F)(F)C(F)(F)C(F)(F)C(F)(F)C(F)(F)C(F)(F)C(F)(F)C(F)(F)C(F)(F)C(F)(F)C(F)(F)F [PFTiDA, Perfluorotridecanoic acid] | decreased peak frequency | 12 | – | –
